{"source": "patent US20050025805A1", "about": "“Osmium compounds for reduction of adverse inflammation” (priority 2003, published 2005)", "key": {"[1]": {"system": "Phorbol Myristate Stimulated Murine Peritoneal Macrophages", "conditions": "cited from earlier work"}, "[2]": {"conditions": "Neta et al. J. Phys. Chem. 1980; cited from earlier work"}, "[3]": {"assay": "Pulse radiolysis: decay of carbonate radical CO3.-, absorbance at 600 nm", "format": "biochemical", "conditions": "0.6 M carbonate", "protocol": "Methods. Pulse radiolysis experiments were carried out using a 5-MeV Varian 7715 linear accelerator (0.05-1.5 μs electron pulses, 200 mA current). All measurements were performed at room temperature in a 2-cm spectrosil cell, with three light passes (optical path length 6.1 cm). The formation and decay kinetics of the CO3− radical were tracked by measuring its absorption at 600 nm using ε600=1860 M^−1cm^−1.\nCarbonate radical was generated by irradiating N2O-saturated (˜25 mM) aqueous solutions containing 0.1-0.6 M sodium carbonate (pKa(HCO3^−)=10, I=0.5 M) at pH 10.0 by reaction sequence 18-20 (the species radiation yields are in parentheses): […]"}, "[4]": {"assay": "Pulse radiolysis: catalysis of the decay (dismutation) of O2.-, absorbance at 260 nm", "format": "biochemical", "conditions": "for kcat (in words): oxygenated solution; for kobs at the plateau: 10 μM O2.-, pH 7.25; for kcat at the plateau after repetitive pulsing: 20 mM formate, 2.4 mM phosphate pH 7.25", "protocol": "Pulse radiolysis experiments were carried out with a Varian (Palo Alto, Calif.) 7715 linear accelerator with 5 MeV electron pulses of 1.5 μs duration. The light source of the analyzing beam was a 200 W xenon lamp. The absorption spectra were measured were at room temperature in a 2 cm Spectrosil® cell, the beam passing the cell three times, for an optical path length of 6.1 cm. The dose was 6-19.4 Gy per pulse, as determined from the absorption of the superoxide ion, using G(O2.^−)=6.1 and ε260=1940 M^−1cm^−1, in pH 7.4 O2 saturated 2.4 mM phosphate buffer, containing 20 mM formate.\nOsO4 (or its product) catalyzes the decay of the superoxide ion radical. The superoxide ion radical (pKa=4.8) was formed by pulse-irradiation of oxygenated pH 7.2-7.4 buffer solutions. The solutions contained either 0.02 M formate and 2.4 mM phosphate, or 0.2 M 2-PrOH and 12 mM phosphate. In some experiment 5-10 μM diethylenetriaminepentaacetic acid (DTPA) or catalase (75 u/ml) were added. In the presence of either formate or 2-PrOH. All of the primary radicals formed by the radiation (Equation 3) are converted into O2.^− via Reactions 4-7 when formate is added, and by Reactions 4, 8-10, when 2-PrOH is added. In Equation 3 the values in parentheses are the radiation-chemical yields of the species, defined as the number of species produced per 100 eV of absorbed energy γ."}}, "note": "Like-named read-outs stand apart in the source and are kept apart here."}
{"molecule": "CC(=O)OC[C@H]1O[C@@H]([S-])[C@H](OC(C)=O)[C@@H](OC(C)=O)[C@@H]1OC(C)=O.CCP(CC)CC.[Au+]", "note": "[2,3,4,6-tetra-O-acetyl-1-thio-β-D-glucopyranosato-S (triethylphosphine)]", "values": [{"measurement": "inhibition of the release of O2.- (in words)", "setting": "[1]; 10 μM concentration", "result": "completely inhibited"}]}
{"molecule": "Cc1cccc[n+]1[O-]", "note": "[2-picoline N-oxide]", "values": [{"measurement": "k, reaction with .OH radicals", "setting": "[2]", "result": "3e+09", "unit": "M⁻¹ s⁻¹"}]}
{"molecule": "Cc1ccc[n+]([O-])c1", "note": "[3-picoline N-oxide]", "values": [{"measurement": "k, reaction with .OH radicals", "setting": "[2]", "result": "3e+09", "unit": "M⁻¹ s⁻¹"}]}
{"molecule": "Cc1cc[n+]([O-])cc1", "note": "[4-picoline N-oxide]", "values": [{"measurement": "k, reaction with .OH radicals", "setting": "[2]", "result": "3e+09", "unit": "M⁻¹ s⁻¹"}, {"measurement": "shortening of the half-life of CO3.-", "setting": "[3]; 2 mM, 3 μM CO3.-", "result": "about 50%"}, {"measurement": "rate constant of the reaction with CO3.-", "setting": "[3]; pH 10.0", "result": "about 3×10^4 M^−1s^−1"}]}
{"molecule": "CN(C)CCCN1CCC2(C[CH2][Ge]([CH3])([CH3])[CH2]C2)C1", "note": "[(N,N-dimethylaminopropyl)-2-aza-8,8-dimethyl-8-germanospiro-(4,5)-decane]", "values": [{"measurement": "inhibition of the release of O2.- (in words)", "setting": "[1]; 10 μM concentration", "result": "completely inhibited"}]}
{"molecule": "[Os+2].c1ccc(-c2ccccn2)nc1.c1ccc(-c2ccccn2)nc1.c1ccc(-c2ccccn2)nc1", "note": "[Os(bpy)3^2+]", "values": [{"measurement": "kcat (in words)", "setting": "[4]", "result": "too low to be measured"}]}
{"molecule": "Cc1ccnc(-c2cc(C)ccn2)c1.Cc1ccnc(-c2cc(C)ccn2)c1.Cc1ccnc(-c2cc(C)ccn2)c1.[Os+2]", "note": "[Os(dimebpy)^2+]", "values": [{"measurement": "kcat (in words)", "setting": "[4]", "result": "too low to be measured"}]}
{"molecule": "[Cl][Os]([Cl])[Cl]", "note": "[OsCl3, OsCl3.6H2O]", "values": [{"measurement": "kobs at the plateau", "setting": "[4]; 1.65 μM OsCl3, after 40 pulses", "result": 1700, "unit": "s⁻¹"}, {"measurement": "kcat at the plateau after repetitive pulsing", "setting": "[4]", "result": "1.1e+09", "unit": "M⁻¹ s⁻¹"}, {"measurement": "effect on rate of decay of O2.- in the first pulse", "setting": "[4]; 1.65 or 3.3 μM OsCl3, first pulse", "result": "only a minor increase"}, {"measurement": "kobs at the plateau", "setting": "[4]; 3.3 OsCl3, after 40 pulses", "result": 3400, "unit": "s⁻¹"}]}
{"molecule": "[Cl][Os][Cl].c1cnc2c(c1)ccc1cccnc12.c1cnc2c(c1)ccc1cccnc12", "note": "[dichlorobis(phenathroline) osmium(II)]", "values": [{"measurement": "% inhibition of O2.- release", "setting": "[1]; 10 μM concentration", "result": "24±4", "unit": "%"}]}
{"molecule": "[O-][n+]1ccccc1", "note": "[pyridine N-oxide]", "values": [{"measurement": "k, reaction with .OH radicals", "setting": "[2]", "result": "3e+09", "unit": "M⁻¹ s⁻¹"}]}
{"molecule": "K2OsCl6.2H2O Cl6 [OsCl6^2−]", "values": [{"measurement": "kcat at the plateau after repetitive pulsing", "setting": "[4]", "result": "4e+08", "unit": "M⁻¹ s⁻¹"}]}
{"molecule": "bis(bipyridyl) dichloroosmium(II)", "values": [{"measurement": "% inhibition of O2.- release", "setting": "[1]; 10 μM concentration", "result": "2±2", "unit": "%"}]}
{"molecule": "octamminodinitrato-(μ-nitrido)-diosmium trinitrate", "values": [{"measurement": "% inhibition of O2.- release", "setting": "[1]; 100 μM concentration", "result": "29±6", "unit": "%"}]}
